# Patent publication US20130164338A1 (priority 2010, published 2013)
# Test system: S. pneumoniae (Serotype 3; ATCC 6303)
# Test: S. pneumoniae mouse pneumonia model, nebulized salt formulations
# Format: in vivo, C57BL/6 mice
# Conditions: nebulized 2 h before infection; ~0.72 mg Ca/kg, ampicillin ~3 mg/kg
smiles,measurement,value
CC1(C)S[C@@H]2[C@H](NC(=O)[C@H](N)c3ccccc3)C(=O)N2[C@H]1C(=O)O [ampicillin],reduction of bacterial titers in lungs relative to saline control,33 fold
